Assays:
Assay type in all cases: in vivo
Veronica persica (VERPE) = experiment: Post-emergence herbicidal action, greenhouse pot test
Description: (§1) Seeds of monocotyledonous and dicotyledonous weeds and crop plants were placed in sandy loam in plastic or wood-fiber pots, covered with soil and cultivated in a greenhouse under controlled growth conditions. 2 to 3 weeks after sowing, the test plants were treated at the one-leaf stage. The compounds of the invention, formulated in the form of wettable powders (WP) or as emulsion concentrates (EC), were then sprayed onto the green parts of the plants as aqueous suspension or emulsion with addition of 0.5% additive at a water application rate of 600 l/ha (converted). After the test plants had been kept in the greenhouse under optimum growth conditions for about 3 weeks, the activity of the preparations was rated visually in comparison to untreated controls. For example, 100% activity=the plants have died, 0% activity=like control plants.
(§2) Tables A1 to A14 below show the effects of selected compounds of the general formula (I) according to Tables I.1 to I.33 on various harmful plants and at an application rate corresponding to 20 g/ha and less, which were obtained by the experimental method specified above. The appendices “a”, “b” and “c” give differentiation by different dosage with otherwise the same harmful plants tested.

Viola tricolor (VIOTR) = experiment: as above
Description: as §1, §2

[1] = system: Amaranthus retroflexus (AMARE); experiment: as above; settings: rated visually after about 3 weeks vs untreated controls, 100% = plants have died
Description: as §1, §2

[2] = system: Polygonum convolvulus (POLCO); experiment: as above
Description: as §1, §2

[3] = system: Abutilon theophrasti (ABUTH); experiment: as above; settings: rated visually after about 3 weeks vs untreated controls, 100% = plants have died
Description: as §1, §2

[4] = system: Pharbitis purpurea (PHBPU); experiment: as above
Description: as §1, §2

Oryza sativa (ORYSA) = experiment: Post-emergence crop plant compatibility, greenhouse pot test (also comparative test C); settings: for Post-emergence action against ORYSA (crop plant compatibility): vs untreated controls; for Post-emergence action against ORYSA in %: 20 g/ha, crop plant compatibility
Description: as §1
(§3) The observed effects on selected crop plants are reported here in comparison to the untreated controls (values in %). The appendices “a”, “b” and “c” give differentiation by different dosage with otherwise the same crop plants tested.
(§4) C. Comparative Herbicidal Action and Crop Plant Compatibility of Two Inventive Compounds (I.7-1 and I.7-115) with a Compound of Similar Structure Known from the Literature (WO2002/098227, a-17 and EP1106607, 3-14) in Post-Emergence Treatment.

[5] = system: Echinochloa crus-galli (ECHCG); experiment: Post-emergence herbicidal action, greenhouse pot test (also comparative test C)
Description: as §1, §2, §4
(§5) Tables C1-C4 below show the effects of two inventive compounds (I.7-1 and I.7-115) together with a compound of similar structure known from the literature (a-17 in WO2002/098227, and 3-14 in EP1106607) in different crop plants at an application rate corresponding to 5 g/ha or less, which have been obtained by the aforementioned experimental procedure.

Setaria viridis (SETVI) = experiment: as above; settings: for Post-emergence action against SETVI: 20 g/ha
Description: as §1, §2, §4, §5

[6] = system: Matricaria inodora (MATIN); experiment: as above
Description: as §1, §2, §4, §5

[7] = system: Alopecurus myosuroides (ALOMY); experiment: as above; settings: rated visually after about 3 weeks vs untreated controls, 100% = plants have died
Description: as §1, §2, §4, §5

Zea mays (ZEAMX) = experiment: Post-emergence crop plant compatibility, greenhouse pot test; settings: vs untreated controls
Description: as §1, §3

[8] = system: Triticum aestivum (TRZAS); experiment: as above; settings: vs untreated controls
Description: as §1, §3

Compound | Post-emergence action against VERPE (Veronica persica (VERPE); 5 g/ha) | Post-emergence action against VERPE (Veronica persica (VERPE); 20 g/ha) | Post-emergence action against VIOTR (Viola tricolor (VIOTR); 1.25 g/ha) | Post-emergence action against VIOTR (Viola tricolor (VIOTR); 5 g/ha) | Post-emergence action against VIOTR (Viola tricolor (VIOTR); 20 g/ha) | Post-emergence action at 1.25 g/ha against AMARE in % [1] | Post-emergence action at 5 g/ha against AMARE in % [1] | Post-emergence action at 20 g/ha against AMARE in % [1] | Post-emergence action against POLCO in % ([2]; dosage 20 g/ha) | Post-emergence action at 5 g/ha against ABUTH in % [3] | Post-emergence action at 20 g/ha against ABUTH in % [3] | Post-emergence action against PHBPU in % ([4]; dosage 5 g/ha) | Post-emergence action against PHBPU in % ([4]; dosage 20 g/ha) | Post-emergence action against ORYSA (crop plant compatibility) (Oryza sativa (ORYSA); 1.25 g/ha) | Post-emergence action against ORYSA (crop plant compatibility) (Oryza sativa (ORYSA); 5 g/ha) | Post-emergence action against ECHCG in % ([5]; dosage 20 g/ha) | Post-emergence action against SETVI (Setaria viridis (SETVI)) | Post-emergence action against SETVI in % (Setaria viridis (SETVI); dosage 5 g/ha) | Post-emergence action against MATIN in % ([6]; dosage 5 g/ha) | Post-emergence action against MATIN in % ([6]; dosage 20 g/ha) | also measured
Cn1c(C(F)(F)F)cc(=O)n(-c2cc(Oc3ccccc3OCC(=O)OCC[N+](=O)[O-])c([N+](=O)[O-])cc2F)c1=O [I.6-183] | 100% | 100% | 90% | 100% | 100% | 100% | 100% | 100% | 100% | 100% | 100% | 100% | 100% | 0% | 0% | 80% | 100% | 100% | 80% | 100% | Post-emergence action against PHBPU in % ([4]; dosage 1.25 g/ha): 100%; Post-emergence action against ORYSA in % (Oryza sativa (ORYSA)): 0%; Post-emergence action at 20 g/ha against ALOMY in % [7]: 90%; Post-emergence action against ZEAMX (crop plant compatibility) (Zea mays (ZEAMX); 1.25 g/ha): 20%; Post-emergence action against ZEAMX (crop plant compatibility) (Zea mays (ZEAMX); 5 g/ha): 20%; Post-emergence action against TRZAS (crop plant compatibility) ([8]; 1.25 g/ha): 0%; Post-emergence action against TRZAS (crop plant compatibility) ([8]; 5 g/ha): 20%
Cn1c(C(F)(F)F)cc(=O)n(-c2cc(Oc3ccccc3OCC(=O)OCc3cccnc3)c(Cl)cc2F)c1=O [I.7-277] | 100% | 100% | 80% | 100% | 100% | 100% | 100% | 100% | 100% | 100% | 100% | 100% | 100% | 0% | 0% | 100% | 100% | 100% | 80% | 100% | Post-emergence action against VERPE (Veronica persica (VERPE); 1.25 g/ha): 100%; Post-emergence action at 1.25 g/ha against ABUTH in % [3]: 90%; Post-emergence action against ORYSA in % (Oryza sativa (ORYSA)): 20%; Post-emergence action against ECHCG in % ([5]; dosage 5 g/ha): 100%; Post-emergence action against SETVI in % (Setaria viridis (SETVI); dosage 1.25 g/ha): 100%; Post-emergence action at 20 g/ha against ALOMY in % [7]: 100%; Post-emergence action against ZEAMX (crop plant compatibility) (Zea mays (ZEAMX); 1.25 g/ha): 0%; Post-emergence action against TRZAS (crop plant compatibility) ([8]; 1.25 g/ha): 0%; Post-emergence action against TRZAS (crop plant compatibility) ([8]; 5 g/ha): 20%
Cn1c(C(F)(F)F)cc(=O)n(-c2cc(Oc3ccccc3OCC(=O)OCCC[N+](=O)[O-])c(Cl)cc2F)c1=O [I.7-339] | 100% | 100% | 100% | 100% | 100% | 100% | 100% | 100% | 100% | 100% | 100% | 100% | 100% | 0% | 10% | 100% | 100% | 100% | 100% | 100% | Post-emergence action against VERPE (Veronica persica (VERPE); 1.25 g/ha): 80%; Post-emergence action against POLCO in % ([2]; dosage 5 g/ha): 100%; Post-emergence action at 1.25 g/ha against ABUTH in % [3]: 90%; Post-emergence action against PHBPU in % ([4]; dosage 1.25 g/ha): 100%; Post-emergence action against ECHCG in % ([5]; dosage 5 g/ha): 100%; Post-emergence action against SETVI in % (Setaria viridis (SETVI); dosage 1.25 g/ha): 100%; Post-emergence action at 5 g/ha against ALOMY in % ([7]; 5 g/ha): 100%; Post-emergence action at 20 g/ha against ALOMY in % [7]: 100%; Post-emergence action against ZEAMX (crop plant compatibility) (Zea mays (ZEAMX); 1.25 g/ha): 20%; Post-emergence action against TRZAS (crop plant compatibility) ([8]; 1.25 g/ha): 0%; Post-emergence action against TRZAS (crop plant compatibility) ([8]; 5 g/ha): 20%
Cn1c(C(F)(F)F)cc(=O)n(-c2cc(Oc3c(F)cccc3OCC(=O)OCc3ccccn3)c(Cl)cc2F)c1=O [I.19-276] | 100% | 100% | 100% | 100% | 100% | 100% | 100% | 100% | 100% | 100% | 100% | 100% | 100% | 0% | 0% | 100% | 100% | 100% | 100% | 100% | Post-emergence action against VERPE (Veronica persica (VERPE); 1.25 g/ha): 100%; Post-emergence action against POLCO in % ([2]; dosage 5 g/ha): 100%; Post-emergence action at 1.25 g/ha against ABUTH in % [3]: 100%; Post-emergence action against ECHCG in % ([5]; dosage 5 g/ha): 100%; Post-emergence action against SETVI in % (Setaria viridis (SETVI); dosage 1.25 g/ha): 100%; Post-emergence action at 20 g/ha against ALOMY in % [7]: 90%; Post-emergence action against ZEAMX (crop plant compatibility) (Zea mays (ZEAMX); 1.25 g/ha): 20%; Post-emergence action against TRZAS (crop plant compatibility) ([8]; 1.25 g/ha): 20%

Reference: patent US20240025862A1, “SUBSTITUTED N-PHENYLURACILS AND SALTS THEREOF, AND USE THEREOF AS HERBICIDAL ACTIVE SUBSTANCES” (Bayer Aktiengesellschaft, priority 2020, published 2024)
